Experimental data reported in patent US7799800B2, “Lipid-modified immune response modifiers” (3M Innovative Properties Company, priority 2003, dated 2010).

melting point [°C] | SMILES
80 to 83 | CCCCCCCCCCCCCCCCCC(=O)NCCOCCn1c(CCOC)nc2c(N)nc3ccccc3c21 [Example 2, N-(2-{2-[4-amino-2-(2-methoxyethyl)-1H-imidazo[4,5-c]quinolin-1-yl]ethoxy}ethyl)octadecanamide]
80 to 83 | CCCCCCCCCCCC(=O)NCCOCCn1c(CCOC)nc2c(N)nc3ccccc3c21 [Example 3, N-(2-{2-[4-amino-2-(2-methoxyethyl)-1H-imidazo[4,5-c]quinolin-1-yl]ethoxy}ethyl)dodecanamide]
85 to 87 | CCCCCCCCCCCCCC(=O)NCCOCCn1c(CCOC)nc2c(N)nc3ccccc3c21 [Example 4, N-(2-{2-[4-amino-2-(2-methoxyethyl)-1H-imidazo[4,5-c]quinolin-1-yl]ethoxy}ethyl)tetradecanamide]
